Experiment: PK and formulation studies in Sprague Dawley rats, IM
Assay type: in vivo
Details: rat, single IM 5 mg/kg
Description: 2.4 Protein plasma binding […]
2.6 PK and formulation studies - male Sprague rats
Compound 1 was dosed SC at 5 mg free base/kg (dose volume 0.2 or 1 mL/kg; dose vehicle 10% N-methyl-2- pyrrolidinone (NMP), 30% 2-pyrrolidinone, 40% PEG400, 20% deionized water or 10% DMSO, 30% PEG400 and 60% deionized water, respectively) or IM at 5 and 10 mg free base/kg (dose volume 0.2 mL/kg; dose vehicle 10% NMP, 30% 2-pyrrolidinone, 40% PEG400, 20% deionized water or 83.4% 2-pyrrolidinone/polyvinylpyrrolidone (PVP), 16.6% saline or 80% 2-pyrrolidinone/NMP/PVP, 20% (0.05% 2-propanol in saline) to male SD rats (n=3).
Compound 2 was dosed IV at 3 mg free base/kg (dose volume 1 mL/kg; dose vehicle: 10% DMSO, 40% PEG400 and 50% deionized water) or IM at 5, 10 and 20 mg free base/kg (dose volume 0.2 […]
and 0.4 mL/kg; dose vehicle 10% NMP, 30% 2-pyrrolidinone, 40% PEG400, 20% deionized water or 83.4% 2-pyrrolidinone/polyvinylpyrrolidone (PVP), 16.6% saline or 80% 2-pyrrolidinone/NMP/PVP, 20% 0.05% 2-propanol in saline or 40% 0.3M Acetate Buffer, 20% Kolliphor, 20% glycerol formal, 20% 2-pyrrolidinone or 40% 0.3M Acetate Buffer, 20% glycerol formal, 20% 2-pyrrolidinone) to male SD rats (n=3). […]
Compound 2 was dosed IM at 10 mg free base/kg (dose volume 2 mL/10 kg; dose vehicle 40% 0.3 M Acetate Buffer, 20% Kolliphor EL, 20% glycerol formal, 20% 2-pyrrolidone) or IV at 2 mg free base/kg (dose volume 0.4 mL/10 kg; 40% 0.3 M Acetate Buffer, 20% Kolliphor EL, 20% glycerol formal, 20% 2-pyrrolidone) to male ruminating Holstein-Friesian cross animals (n = 3). Blood samples were taken from each animal using 18-G needles into EDTA (K2) vacutainers before dosing […]
into a cool box containing iced water and were processed within 2 h of collection.
2.8 Formulation and tolerability studies for compound 2 (NorthWest Biopharm) A study to identify alternative formulations was conducted. Compound 2, either as the hydrochloride salt or free base, was screened to identify a 50 mg/mL soluble formulation suitable for injection. […]
Kolliphor EL, N-methyl pyrrolidone, 2-pyrrolidone and 11% water at 5 mg/kg was assessed, IM […]
A screen of salt forms as alternatives to the hydrochloride was carried out at Drugabilis. Ten pharmaceutically acceptable counter ions were assessed and three were selected for further study […]
(citrate, fumarate and phosphate) (Figure 9). These alternative salt forms of compound 2 were prepared and formulated in the best vehicle determined by injection site tolerability analysis (0.3M sodium acetate buffer, Kolliphor EL, N-methyl pyrrolidone, 2-pyrrolidone, and 11% water suitable for injection). […]

CC(C)CS(=O)(=O)N[C@H]1CC[C@H](Nc2nc(N)c(C(=O)c3c(F)cccc3F)s2)CC1 [Compound 1, N-((trans)-4-((4-Amino-5-(2,6-difluorobenzoyl)thiazol-2-yl)amino)cyclohexyl)-2-methylpropane-1-sulfonamide]
Cmax (male, blood, Sprague Dawley rats, 10% NMP, 30% 2-pyrrolidinone, 40% PEG400, 20% water, mean): 92 ng/mL | AUC(0-t) (male, blood, Sprague Dawley rats, 10% NMP, 30% 2-pyrrolidinone, 40% PEG400, 20% water, mean, read-out: AUC0-8 (converted)): 354 ng·h/mL | Time at which free concentration in blood <EC99 (formulation A: 83.4% PVP/2-pyrrolidone, 16.6% saline): 3 h | Time at which free concentration in blood <EC99 (formulation B: 80% vehicle 1 (NMP:2-pyrrolidone): 20% vehicle 2): 4 h

Source: PMC9014415, “Repositioning of a Diaminothiazole Series Confirmed to Target the Cyclin-Dependent Kinase CRK12 for Use in the Treatment of African Animal Trypanosomiasis” (Journal of Medicinal Chemistry, 2022)
